The source of these data is patent US20240287089A1, “Preparation and Uses of 7-Azaindenoisoquinolines” (Purdue Research Foundation, priority 0001, published 2024).

Read-outs that look alike come from different tables or passages of the source.

For one series, the system named is SF-539 (CNS). Description: NCI-60 cytotoxicity assay. Format: cell-based. Particulars: Homo sapiens; CNS SF-539, 48 h; read-out: Cytotoxicity GI50. As to the method:
(§1) The antiproliferative activities of the indenoisquinoline compounds are determined in the NCI-60 cancer cell lines of the National Cancer Institute Developmental Therapeutics Program (NCI-DTP). […] Cancer cells are incubated with the test compounds at five concentrations ranging from 100 μM to 10 nM for 48 h. After the treated cancer cells are stained with sulforhodamine B dye, the percentage growth is plotted as a function of the common logarithm of the tested compound concentration. […] The approximate average of GI50 values across the entire panel of NCI-60 cancer cell lines for each compound is recorded as the MGM value.
(§2) NCI-60 Cytotoxicity Assay. Compounds were submitted to the National Cancer Institute Developmental Therapeutic Program to determine their growth-inhibitory potentials in NCI-60 cell lines. All compounds satisfied the pre-screening proceeded into the 5-dose cell viability assay, in which cells were treated for 48 h at 5 dosages ranging from 100 μM to 10 nM.

Another series deals with NCI-60 cancer cell lines. Description: NCI-60 cytotoxicity assay, MGM. Format: cell-based. Particulars: Homo sapiens; read-out: MGM (average GI50 across NCI-60 panel). As to the method: as §1, §2
The test system of the next series is DU-145 (Prostate). Nature of the series: NCI-60 cytotoxicity assay. The series is classed as cell-based, human. Particulars: Homo sapiens; Prostate DU-145, 48 h; read-out: Cytotoxicity GI50. As to the method: as §1, §2
A further series concerns OVCAR-3 (Ovarian). Description: NCI-60 cytotoxicity assay. Format: cell-based, human. Particulars: Homo sapiens; Ovarian OVCAR-3, 48 h; read-out: Cytotoxicity GI50. As to the method:
as §1, §2

The test system of the next series is HCT-116 (Colon). Nature of the series: NCI-60 cytotoxicity assay. The series is classed as cell-based, human. Conditions: Homo sapiens; Colon HCT-116, 48 h; read-out: Cytotoxicity GI50. As to the method: as §1, §2
For another series, the system named is SN12C (Renal). Nature of the series: NCI-60 cytotoxicity assay. Format: cell-based, human. Particulars: Homo sapiens; Renal SN12C, 48 h; read-out: Cytotoxicity GI50. As to the method:
as §1, §2

In a further series the test system is MCF7 (Breast). Nature of the series: NCI-60 cytotoxicity assay. The series is classed as cell-based, human. Conditions: Homo sapiens; Breast MCF7, 48 h; read-out: Cytotoxicity GI50. As to the method:
as §1, §2

A further series relates to HOP-62 (Lung). Description: NCI-60 cytotoxicity assay. The series is classed as cell-based, human. Particulars: Homo sapiens; Lung HOP-62, 48 h; read-out: Cytotoxicity GI50. As to the method:
as §1, §2

In another series the test system is UACC-62 (Melanoma). Description: NCI-60 cytotoxicity assay. The series is classed as cell-based, human. Conditions: Homo sapiens; Melanoma UACC-62, 48 h; read-out: Cytotoxicity GI50. As to the method:
as §1, §2

The conditions of series [1]: human, 6 h, 1 μM.
Method: Analysis of Plasma Protein Binding and Stability in Human and Mouse Blood Plasma by Equilibrium Dialysis. Frozen plasma (stored at −80° C.) was thawed immediately in a 37° C. water bath. The working solutions of test compound and control compound were prepared in DMSO at 200 μM concentration, and the working solutions were spiked into plasma. The final concentration of compound was 1 μM. The final concentration of DMSO was 0.5%. Ketoconazole was used as positive control in the assay. The dialysis membranes were soaked in ultrapure water for 60 min to separate strips, then in 20% ethanol for 20 min, and then finally in dialysis buffer for 20 min. For equilibrium dialysis, each cell contained plasma sample (150 μL) and was dialyzed against an equal volume of dialysis buffer (PBS). The assay was performed in duplicate. The dialysis plate was sealed and incubated at 37° C. with 5% CO2 at 100 rpm for 6 h. At the end of incubation, samples (50 μL) from both buffer and plasma chambers were transferred to wells of a 96-well plate. Plasma (50 μL) was added to each buffer sample and an equal volume of PBS was added to the collected plasma sample. Cold acetonitrile (400 μL) containing internal standards (IS, 100 nM alprazolam, 200 nM labetalol, 200 nM imipramine and 2 μM ketoprofen) was added to precipitate protein and release compounds. Samples were vortexed for 2 min and centrifuged for 30 min at 3,220 g. An aliquot (100 μL) of the supernatant was diluted with ultra-pure H2O (100 μL), and the mixture was used for LC-MS/MS analysis. For stability determination in plasma, a spiked plasma sample (50 μL) was transferred to a new plate and incubated at 37° C., 5% CO2 for 0 and 6 h. At designated time points, PBS (50 μL) was added and mixed thoroughly, followed by the addition of room temperature quench solution [400 μL of acetonitrile containing internal standards (IS, 100 nM alprazolam, 200 nM labetalol, 200 nM imipramine and 2 μM ketoprofen)] to precipitate protein and release compounds. Samples were vortexed for 2 min and centrifuged for 30 min at 3,220 g. An aliquot (400 μL) of the supernatant was diluted by ultra-pure H2O, and the mixture was used for LC-MS/MS analysis. The concentrations of test compounds in the buffer and plasma chambers were determined from peak area ratios.
For series [2] the following is noted: mouse, 6 h, 1 μM.
The nature of series [3]: Maximum tolerated dose determination in NOD SCID mice. The series is classed as in vivo. Conditions: QD x 5; for Body Weight %: 7 days after first dose. As to the method: Maximum Tolerated Dose Determinations. […]. […] Experiments involving 100 mg/kg doses of all three drugs were terminated after one day because of toxicity, while the study involving 50 mg/kg dose of G105 was also halted after one day (FIG. 12). Similarly, the investigation with a 40 mg/kg dose of G105 was discontinued after two days (FIG. 13).

`COc1cc2c3c(n(CCCN4CCOCC4)c(=O)c2cc1OC)-c1nc2c(cc1C3=O)OCO2` [G101, 2,3-Dimethoxy-6-(3-morpholinopropyl)-5H-[1,3]dioxolo[4″,5″:5′,6′]pyrido[3′,2′:4,5]cyclopenta[1,2-c]isoquinoline-5,12(6H)-dione]: the GI50 was 230 nM in the series on SF-539 (CNS); 930 nM in the series on NCI-60 cancer cell lines; 420 nM in the series on DU-145 (Prostate); 4610 nM with OVCAR-3 (Ovarian); 460 nM in the series on HCT-116 (Colon); 2720 nM with SN12C (Renal). The GI50 with MCF7 (Breast) amounted to 39 nM; in the series on HOP-62 (Lung), 51 nM; in the series on UACC-62 (Melanoma) it was 150 nM.
`COc1cc2c3c(n(CCCNC(C)C)c(=O)c2cc1OC)-c1nc2c(cc1C3=O)OCO2` [G103, 6-(3-(Isopropylamino)propyl)-2,3-dimethoxy-5H-[1,3]dioxolo [4″,5″:5′,6′]pyrido[3′,2′:4,5]cyclopenta[1,2-c]isoquinoline-5,12(6H)-dione]: the “% Recovery” value amounted to 88.05% in [1] and 88.02% in series [2]. Moreover, the “% Bound” value is listed as 82.60% in series [1] (plasma) and 84.11% in series [2] (plasma). The GI50 with SF-539 (CNS) amounted to 1520 nM; with NCI-60 cancer cell lines, 2190 nM; with DU-145 (Prostate), 1050 nM; in the series on OVCAR-3 (Ovarian) it was 14300 nM; in the series on HCT-116 (Colon) it was 1040 nM; with SN12C (Renal), 10600 nM. Also, the results for the GI50 in the series on MCF7 (Breast), with HOP-62 (Lung) and with UACC-62 (Melanoma) were 100 nM, 470 nM and 9840 nM, respectively. Further, the “Body Weight %” value in series [3] (5 mg/Kg IV) worked out at 92.4%; in [3] (10 mg/Kg IV), 93%; in series [3] (15 mg/Kg IV), 93.9%; in series [3] (20 mg/Kg IV), 86%; in series [3] (30 mg/Kg IV), 85.1%; in series [3] (40 mg/Kg IV) it was 85.3%. The figures for the “Body Weight %” value in series [3] (50 mg/Kg IV) and in [3] (60 mg/Kg IV) were 86.6% and 74%, respectively. Besides, the “Maximum tolerated dose (MTD)” value in series [3] (NOD SCID mice, IV, body weight % ≥80%) was found to be 50 mg/kg.
As for `COc1cc2c3c(n(CCCn4ccnc4)c(=O)c2cc1OC)-c1nc2c(cc1C3=O)OCO2` [G102, 6-(3-(1H-Imidazol-1-yl)propyl)-2,3-dimethoxy-5H-[1,3]dioxolo[4″,5″:5′,6′]pyrido[3′,2′:4,5]cyclopenta[1,2-c]isoquinoline-5,12(6H)-dione], the GI50 in the series with SF-539 (CNS) was determined as 39 nM; in the series on NCI-60 cancer cell lines, 780 nM; in the series on DU-145 (Prostate) it was 58 nM; in the series on OVCAR-3 (Ovarian), 33400 nM; in the series on HCT-116 (Colon) it was 310 nM; in the series on SN12C (Renal), 440 nM. The values for the GI50 in the series with MCF7 (Breast), in the series with HOP-62 (Lung) and with UACC-62 (Melanoma) were 26 nM, 29 nM and 42 nM, respectively.

One may read the GI50 as the concentration at which growth is held to half of that of the control.
